Like-named read-outs stand apart in the source and are kept apart here.
Assays:
[1] = system: Delta S protein pseudovirus (nCoV-S-Luc-B.1.617.2) in ACE2-293T cells; assay: microbe, parasite or virus in culture; type: cell-based; conditions: for Levels of viral infection, Delta, Ave.: luciferase activity, Control group as 100%; for IC50: read-out: 50% inhibitory concentrations (IC50) for viral infection, Delta, alkaloid compounds, n = 3
[2] = system: Omicron S protein pseudovirus (nCoV-S-Luc-B.1.1.529) in ACE2-293T cells; assay: microbe, parasite or virus in culture; type: cell-based; conditions: read-out: 50% inhibitory concentrations (IC50) for viral infection, Omicron
[3] = system: ACE2-293T cells

Row | Compound | Levels of viral infection, Delta, Ave. ([1]; Conc. 0.1 μM) [%] | Levels of viral infection, Delta, Ave. ([1]; Conc. 1 μM) [%] | Levels of viral infection, Delta, Ave. ([1]; Conc. 10 μM) [%] | IC50 [1] [nM] | IC50 [2] [nM] | Cell Viability (%) [3] [%] | cytotoxic to the ACE2-293T cells (in words) [3] | Levels of viral infection, Delta, Ave. ([1]; Conc. 5 μM) [%] | IC50 ([1]; Pseudovirus) [nM] | IC50 ([2]; Pseudovirus) [nM] | Cell Viability (%) ([3]; human)
1 | COc1cc2c3cc1Oc1c4c(cc5c1[C@H](Cc1ccc(cc1)Oc1cc(ccc1O)C[C@H]3N(C)CC2)N(C)CC5)OCO4 [Cepharanoline] | 89.65 | 64.01 | −3.64 | 1640 ± 180 | 1310 ± 70 | 97.24 ± 0.87 | caused no damages | – | – | – | –
2 | COc1ccc2cc1Oc1ccc(cc1)C[C@H]1c3cc(c(OC)cc3CCN1C)Oc1c(O)c(OC)cc3c1[C@H](C2)N(C)CC3 [Fangchinoline] | – | 64.54 | 7.13 | – | – | – | caused no damages | 27.89 | 1820 ± 20 | 1440 ± 60 | 95.56 ± 2.82
3 | Cycleanine | 118.65 | 88.48 | −3.84 | 2210 ± 500 | 530 ± 30 | – | – | – | – | – | –
